From ChEMBL document CHEMBL1811872, “Tryptophan 2,3-dioxygenase (TDO) inhibitors. 3-(2-(pyridyl)ethenyl)indoles as potential anticancer immunomodulators” (J Med Chem, 2011)

Columns and labels:
[1] = target: Tryptophan 2,3-dioxygenase (Mus musculus, UniProt P48776); assay: Inhibition of mouse TDO expressed in mouse P815B cells assessed as inhibition of tryptophan catabolism by measuring kynurenine production after 8 hrs by HPLC analysis; type: cell-based
[2] = Cytotoxicity against mouse P815B cells […] by MTT assay; type: functional; conditions: read-out: LD50 (the source's name)

Sequence of Tryptophan 2,3-dioxygenase (P48776 whole entry): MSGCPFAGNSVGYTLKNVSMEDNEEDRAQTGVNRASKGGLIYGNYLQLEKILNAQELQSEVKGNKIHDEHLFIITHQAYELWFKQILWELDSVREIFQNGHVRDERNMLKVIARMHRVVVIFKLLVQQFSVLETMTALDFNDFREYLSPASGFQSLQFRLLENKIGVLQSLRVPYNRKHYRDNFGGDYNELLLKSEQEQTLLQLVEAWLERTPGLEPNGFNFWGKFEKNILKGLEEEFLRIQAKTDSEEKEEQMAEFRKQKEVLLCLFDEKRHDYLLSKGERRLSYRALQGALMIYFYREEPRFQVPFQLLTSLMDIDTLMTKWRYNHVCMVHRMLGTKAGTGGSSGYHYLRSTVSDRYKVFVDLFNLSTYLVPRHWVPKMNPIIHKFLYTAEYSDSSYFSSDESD

Row | SMILES | IC50 [1] | CC50 [2]
1 | COc1cccc2c(/C=C/c3cccnc3)c[nH]c12 | > 200 µM | > 200 µM
2 | COc1cccc(/C=C/c2c[nH]c3cc(F)ccc23)c1 | 10 µM | 40 µM
3 | COC(=O)c1ccc2c(/C=C/c3cccnc3)c[nH]c2c1 | > 200 µM | > 200 µM
4 | Brc1cccc2c(/C=C/c3cccnc3)c[nH]c12 | > 20 µM | 20 µM
5 | Fc1cccc(/C=C/c2c[nH]c3cc(F)ccc23)c1 | 10 µM | 40 µM
6 | N#C/C(=C\c1c[nH]c2cc(F)ccc12)c1ccccc1 | > 80 µM | > 80 µM
7 | c1ccc2c(CCc3nnn[nH]3)c[nH]c2c1 | > 80 µM | > 80 µM
8 | OC/C=C/c1c[nH]c2cc(F)ccc12 | 80 µM | 100 µM
9 | c1cncc(CCCc2c[nH]c3ccccc23)c1 | > 200 µM | > 200 µM
10 | COc1ccc2[nH]cc(/C=C/c3cccnc3)c2c1 | 40 µM | > 80 µM
11 | c1ccc2c(-c3nnn[nH]3)c[nH]c2c1 | > 80 µM | > 80 µM
12 | O=C(O)/C=C/c1c[nH]c2ccccc12 | 18 µM | > 400 µM
13 | Oc1ccc2c(/C=C/c3cccnc3)c[nH]c2c1 | > 200 µM | > 200 µM
14 | Cn1cc(/C=C/c2cccnc2)c2ccc(F)cc21 | > 200 µM | > 200 µM
15 | Cc1ccc2c(/C=C/c3cccnc3)c[nH]c2c1 | > 200 µM | > 200 µM
16 | C/C=C/c1c[nH]c2ccccc12 | > 80 µM | > 80 µM
17 | N#C/C=C/c1c[nH]c2cc(F)ccc12 | 3 µM | > 80 µM
18 | N#C/C=C/c1c[nH]c2ccccc12 | 13 µM | > 80 µM
19 | O=[N+]([O-])c1cccc2[nH]cc(/C=C/c3cccnc3)c12 | > 200 µM | > 200 µM
20 | Clc1ccc2[nH]cc(/C=C/c3cccnc3)c2c1 | 20 µM | > 80 µM
21 | COC(=O)/C=C/c1c[nH]c2cc(F)ccc12 | 2 µM | 40 µM

Row | SMILES | IC50 [1] | CC50 [2]
22 | O=C(O)C(=Cc1c[nH]c2cc(F)ccc12)C(=O)O | > 80 µM | > 80 µM
23 | C(=C\c1c[nH]cn1)/c1cccnc1 | > 200 µM | > 80 µM
24 | c1cncc(CCc2c[nH]c3ccccc23)c1 | 80 µM | > 80 µM
25 | N#Cc1cccc2[nH]cc(/C=C/c3cccnc3)c12 | > 200 µM | > 200 µM
26 | Fc1ccc2c(/C=C/c3ccccc3)c[nH]c2c1 | 40 µM | 40 µM
27 | Brc1ccc2c(/C=C/c3cccnc3)c[nH]c2c1 | > 200 µM | > 200 µM
28 | C(=C\c1ccc2ccccc2c1)/c1cccnc1 | > 200 µM | > 80 µM
29 | O=[N+]([O-])c1cccc(/C=C/c2c[nH]c3cc(F)ccc23)c1 | 3 µM | 40 µM
30 | C(=C\c1c[nH]c2c1ccc1ccccc12)/c1cccnc1 | > 200 µM | > 80 µM
31 | Clc1ccc2c(/C=C/c3cccnc3)c[nH]c2c1 | 20 µM | > 40 µM
32 | N#CCc1c[nH]c2ccccc12 | > 80 µM | > 80 µM
33 | COC(=O)c1ccc2[nH]cc(/C=C/c3cccnc3)c2c1 | > 200 µM | > 200 µM
34 | Brc1cccc2[nH]cc(/C=C/c3cccnc3)c12 | > 200 µM | > 200 µM
35 | Fc1cccc2[nH]cc(/C=C/c3cccnc3)c12 | 10 µM | > 80 µM
36 | C(=C\c1n[nH]c2ccccc12)/c1cccnc1 | > 200 µM | > 80 µM
37 | Fc1ccc(-c2n[nH]cc2/C=C/c2cccnc2)cc1 | > 200 µM | > 80 µM
38 | Fc1ccc2c(/C=C/c3ccncc3)c[nH]c2c1 | 3 µM | 200 µM
39 | C(=C\c1c(-c2ccccc2)[nH]c2ccccc12)/c1cccnc1 | > 200 µM | > 200 µM
40 | N#CCCc1c[nH]c2ccccc12 | > 80 µM | > 80 µM
41 | C(=C\c1ccc2[nH]ccc2c1)/c1cccnc1 | > 200 µM | > 80 µM
42 | C(=C\c1c[nH]c2ccccc12)/c1ccccn1 | 20 µM | > 100 µM
